Laboratory results from US11814445B2, “Cyclic polypeptides for PCSK9 inhibition” (Ra Pharmaceuticals, Inc., priority 2018, dated 2023).
Numbered stars: 1 amine (or outer) side, 2 acyl side, 3 side chain; on linkers, the order of the positions; unused ones are H or OH. Bridge positions count the residues as written; N and C are the ends. Square brackets hold non-standard residues; d marks the D form. Peptide text beside a SMILES is read from it. X2 = NC(=O)[C@H](CSCc1cccc(C[*:1])c1)CC(=O)[C@@H]1CCCN1[*:2]; Phe(3,4,5-F3) = N[C@@H](Cc1cc(F)c(F)c(F)c1)C(=O)O; X6 = O=C([C@H](Cc1cccc(OCC=[*:3])c1)N[*:1])[*:2]; Phe(4-COOH) = N[C@@H](Cc1ccc(C(=O)O)cc1)C(=O)O; Trp(5-F) = N[C@@H](Cc1c[nH]c2ccc(F)cc12)C(=O)O; Phe(3-CN) = N#Cc1cccc(C[C@H](N)C(=O)O)c1; X1 = O=C(CCSCc1cccc(CSCCN[*:1])c1)[*:2]; Phe(4-F) = N[C@@H](Cc1ccc(F)cc1)C(=O)O; 2Nal = N[C@@H](Cc1ccc2ccccc2c1)C(=O)O; mXylylene = c1cc(C[*:1])cc(C[*:2])c1; X5 = O=C(CN(CCCCC=[*:3])[*:1])[*:2]; X3 = O=C(CCSC/C=C/CSCCN[*:1])[*:2]; X4 = O=C(CN(CCCC=[*:3])[*:1])[*:2]; hhPhe = N[C@@H](CCCc1ccccc1)C(=O)O; NMeF = CN[C@@H](Cc1ccccc1)C(=O)O; X7 = O=C(CN(CC=[*:3])[*:1])[*:2]; aThr = C[C@H](O)[C@H](N)C(=O)O; αMeP = C[C@@]1(C(=O)O)CCCN1; hSer = N[C@@H](CCO)C(=O)O; Aze = O=C(O)[C@@H]1CCN1; Ahx = NCCCCCC(=O)O; Mpa = O=C(O)CCS

Experiments:
[1] = biological target: human PCSK9 / human LDLR EGFa domain (Homo sapiens, UniProt Q8NBP7); experiment: TR-FRET assay of inhibition of the PCSK9-LDLR protein-protein interaction; assay type: binding; conditions: 20 nM human PCSK9, 20 nM human LDLR EGFa domain, 2 hours room temperature
Description: A time-resolved fluorescence resonance energy (TR-FRET) assay was used to measure inhibition of the PCSK9-LDLR protein-protein interaction. Briefly, 20 nM avitag-biotinylated human PCSK9 was incubated with 20 nM his-tagged human LDLR EGFa domain in the presence of 5 nM LANCE Ulight Streptavidin (Perkin Elmer) and 5 nM europium-Anti-6×His (Perkin Elmer) for 2 hours covered at room temperature in buffer containing 50 mM HEPES, 150 mM NaCl, 5 mM CaCl2), 0.01% BSA and 0.01% Surfactant P20. Compounds were tested in dose-response and concentrations giving half-maximal inhibition calculated using a 4-parameter fit equation.

PCSK9 = biological target: T1, PCSK9 (Homo sapiens, UniProt Q8NBP7); experiment: PCSK9 Alexa FRET Standard assay (displacement of AlexaFluor647 tagged cyclic peptide Reagent A); assay type: binding; conditions: 0.5 nM PCSK9, 20 nM AF cyclic peptide Reagent A
T1 construct: biotin (biotinylated)
Description: A solution containing 1 nM biotinylated PCSK9+2.5 nM Lance Streptavidin Europium (Strep-Eu) was made in 50 mM HEPES pH 7.4, 0.15 M NaCl, 5 mM CaCl2), 0.01% BSA, and 0.01% Surfactant P20. A separate solution containing 40 nM of the AlexaFluor tagged cyclic peptide was made in the same buffer system. An Echo was used to transfer 0.750 ul of compound to an assay plate followed by the addition of 15 ul of PCSK9+Stept-Eu and 15 ul of AF peptide. The final assay volume was 30.750 ul containing 0.5 nM PCSK9, 1.25 nM Strep-Eu, and 20 nM AF cyclic peptide. The reaction was incubated at room temperature for at least two hours prior to fluorescence measurements using an Envision Multilabel Reader. IC50 values were determined by fitting data to a sigmoidal dose-response curve using nonlinear regression. Ki was then calculated from the IC50 and the KD of AF cyclic peptide. Counts (B-counts) of the europium-labeled PCSK9 were followed to observe if compounds were […]. A fall off of the B-counts likely indicated a false positive of inhibition. Data from this procedure was reported as “A=‘numerical value’ (nanomolar)”

T1 sequence (Q8NBP7 153-692): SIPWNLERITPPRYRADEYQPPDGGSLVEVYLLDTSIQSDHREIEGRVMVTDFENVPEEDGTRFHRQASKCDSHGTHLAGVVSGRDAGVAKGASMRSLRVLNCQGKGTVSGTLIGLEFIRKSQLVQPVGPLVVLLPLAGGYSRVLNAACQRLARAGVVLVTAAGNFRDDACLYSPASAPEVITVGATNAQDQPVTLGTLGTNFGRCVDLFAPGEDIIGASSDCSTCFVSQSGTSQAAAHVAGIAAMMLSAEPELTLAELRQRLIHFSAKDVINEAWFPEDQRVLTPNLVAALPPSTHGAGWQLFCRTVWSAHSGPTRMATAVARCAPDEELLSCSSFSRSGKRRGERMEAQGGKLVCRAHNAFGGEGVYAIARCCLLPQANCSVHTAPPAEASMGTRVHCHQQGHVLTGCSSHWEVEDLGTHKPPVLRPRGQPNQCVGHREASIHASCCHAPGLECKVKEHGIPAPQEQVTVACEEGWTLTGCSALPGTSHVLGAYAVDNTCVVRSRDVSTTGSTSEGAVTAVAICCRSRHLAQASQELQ
Chain of human PCSK9 / human LDLR EGFa domain (Q8NBP7 153-692): as above

Row | Compound | IC50 [1] [nM] | IC50 (PCSK9) [nM]
1 | NCCCC[C@@H]1NC(=O)CCSCc2cccc(c2)CSC[C@@H](C(N)=O)NC(=O)[C@@H]2CCCN2C(=O)[C@H](Cc2ccc(O)cc2)NC(=O)[C@H](Cc2cnc[nH]2)NC(=O)[C@H](CCO)NC(=O)[C@H](Cc2c[nH]c3ccc(F)cc23)NC(=O)[C@H](Cc2c[nH]c3ccc(F)cc23)NC(=O)CNC1=O [Compound 117] ([Mpa]KG[Trp(5-F)][Trp(5-F)][hSer]HYPC-NH2; linker 1-10 via mXylylene) | 100 to 1000 | 1 to 100
2 | C[C@@H]1NC(=O)[C@@H]2CCCN2C(=O)[C@H](Cc2c[nH]c3ccc(F)cc23)NC(=O)[C@H](Cc2c[nH]c3ccc(F)cc23)NC(=O)[C@@H](C)NC(=O)[C@H](CCCCN)NC(=O)CCSC/C=C/CSCCNC(=O)[C@]2(C)CCCN2C(=O)[C@H](Cc2ccc(O)cc2)NC1=O [Compound 045] (cyclo(AY[αMeP][X3]K[dA][Trp(5-F)][Trp(5-F)]P)) | 1 to 100 | 1 to 100
3 | COc1ccc(C[C@@H]2NC(=O)[C@H](C)NC(=O)[C@@H]3CCCN3C(=O)[C@H](NC(=O)[C@H](Cc3c[nH]c4ccc(F)cc34)NC(C)=O)Cc3cn(c4ccc(F)cc34)Cc3cn(nn3)-c3cccc(c3)CSCCNC(=O)[C@]3(C)CCCN3C2=O)cc1 [Compound 101] | 1 to 100 | 1 to 100
4 | COc1ccc(C[C@@H]2NC(=O)[C@H]([C@@H](C)O)NC(=O)CN3CCCCOc4cccc(c4)C[C@H](NC(=O)[C@@H](C)NC(=O)[C@H](C)NC(=O)CCSCc4cccc(c4)CSCCNC(=O)[C@]4(C)CCCN4C2=O)C(=O)N[C@H](Cc2c[nH]c4ccc(F)cc24)C3=O)cc1 [Compound 126] | 1 to 100 | 1 to 100
5 | C[C@@H]1NC(=O)[C@@H]2CCCN2C(=O)[C@H](Cc2cccc(C#N)c2)NC(=O)[C@H](Cc2c[nH]c3ccc(F)cc23)NC(=O)CNC(=O)[C@H](CCCCN)NC(=O)CCSCc2cccc(c2)CSC[C@@H](C(N)=O)NC(=O)[C@@H]2CCCN2C(=O)[C@H](Cc2ccc(O)cc2)NC1=O [Compound 015] ([Mpa]KG[Trp(5-F)][Phe(3-CN)]PAYPC-NH2; linker 1-10 via mXylylene) | 1 to 100 | 1 to 100
6 | C[C@@H]1NC(=O)[C@@H]2CCCN2C(=O)[C@H](Cc2ccc3ccccc3c2)NC(=O)[C@H](Cc2c[nH]c3ccc(F)cc23)NC(=O)CNC(=O)[C@H](CCCCN)NC(=O)CCSCc2cccc(c2)CSC[C@@H](C(N)=O)NC(=O)[C@@H]2CCCN2C(=O)[C@H](Cc2ccc(O)cc2)NC1=O [Compound 011] ([Mpa]KG[Trp(5-F)][2Nal]PAYPC-NH2; linker 1-10 via mXylylene) | 1 to 100 | 1 to 100
7 | COc1ccc(C[C@@H]2NC(=O)[C@H](C)NC(=O)CN3CCCCOc4cccc(c4)C[C@H](NC(=O)CNC(=O)CCCCCNC(=O)c4ccc(cc4)C[C@@H](C(N)=O)NC(=O)[C@]4(C)CCCN4C2=O)C(=O)N[C@@H](Cc2c[nH]c4ccc(F)cc24)C3=O)cc1 [Compound 124] | 100 to 1000 | 1 to 100
8 | COc1ccc(C[C@@H]2NC(=O)[C@H]([C@@H](C)O)NC(=O)[C@@H]3CCCN3C(=O)[C@H]3Cc4cn(c5ccc(F)cc45)Cc4cn(nn4)-c4cc(cc(c4)CSCCC(=O)N[C@@H](C)C(=O)N[C@H](C)C(=O)N[C@@H](Cc4c[nH]c5ccc(F)cc45)C(=O)N3)CSCCNC(=O)[C@]3(C)CCCN3C2=O)cc1 [Compound 129] | 1000 to 12100 | 1000 to 12100
9 | COc1ccc(C[C@@H]2NC(=O)[C@H](C)NC(=O)CN3CCCCCCCCCN(CC(=O)N[C@@H](Cc4c[nH]c5ccc(F)cc45)C3=O)C(=O)CNC(=O)CCCCCNC(=O)c3ccc(cc3)C[C@@H](C(N)=O)NC(=O)[C@]3(C)CCCN3C2=O)cc1 [Compound 123] | 100 to 1000 | 1 to 100
10 | C[C@@H]1NC(=O)[C@@H]2CCN2C(=O)[C@H](Cc2c[nH]c3ccc(F)cc23)NC(=O)[C@H](Cc2c[nH]c3ccc(F)cc23)NC(=O)[C@@H](C)NC(=O)[C@H](CCCCN)NC(=O)CCSCc2cccc(c2)CSC[C@@H](C(N)=O)CC(=O)[C@@H]2CCCN2C(=O)[C@H](Cc2ccc(O)cc2)NC1=O [Compound 034] ([Mpa]K[dA][Trp(5-F)][Trp(5-F)][Aze]AY; linker 1-C via X2) | 100 to 1000 | 1 to 100
11 | COc1ccc(C[C@@H]2NC(=O)[C@H](C)NC(=O)[C@@H]3CCC(=O)NCc4cccc(c4)C[C@H](NC(=O)CNC(C)=O)C(=O)N[C@@H](Cc4cn(c5ccc(F)cc45)Cc4cn(nn4)CC[C@@H](C(N)=O)NC(=O)[C@]4(C)CCCN4C2=O)C(=O)N3)cc1 [Compound 127] | 100 to 1000 | 1 to 100
12 | C[C@H](O)[C@@H]1NC(=O)CNC(=O)[C@H](CCCCN)NC(=O)CCSCc2cccc(c2)CSC[C@@H](C(N)=O)NC(=O)[C@]2(C)CCCN2C(=O)[C@H](Cc2ccc(O)cc2)NC(=O)[C@H](Cc2cnc[nH]2)NC(=O)[C@H](CC(=O)O)NC(=O)[C@H](Cc2c[nH]c3ccc(F)cc23)NC1=O [Compound 114] ([Mpa]KG[aThr][Trp(5-F)]DHY[αMeP]C-NH2; linker 1-10 via mXylylene) | 100 to 1000 | 100 to 1000
13 | C[C@@H]1NC(=O)[C@@H]2CCCN2C(=O)[C@H](Cc2cc(F)c(F)c(F)c2)NC(=O)[C@H](Cc2c[nH]c3ccc(F)cc23)NC(=O)CNC(=O)[C@H](CCCCN)NC(=O)CCSCc2cccc(c2)CSC[C@@H](C(N)=O)NC(=O)[C@@H]2CCCN2C(=O)[C@H](Cc2ccc(O)cc2)NC1=O [Compound 014] ([Mpa]KG[Trp(5-F)][Phe(3,4,5-F3)]PAYPC-NH2; linker 1-10 via mXylylene) | 1 to 100 | 1 to 100

Second part, the compound after the results:

Row | IC50 [1] [nM] | IC50 (PCSK9) [nM] | Compound
14 | 1000 to 12100 | 100 to 1000 | COc1ccc(C[C@@H]2NC(=O)[C@H](C)NC(=O)CN3CCCC/C=C\CCCN(CC(=O)N[C@@H](Cc4c[nH]c5ccc(F)cc45)C3=O)C(=O)CNC(=O)CCCCCNC(=O)c3ccc(cc3)C[C@@H](C(N)=O)NC(=O)[C@]3(C)CCCN3C2=O)cc1 [Compound 122] ([Ahx]G[X4][Trp(5-F)][X5]AY(Me)[αMeP][Phe(4-COOH)]-NH2; staple (Z) 3-5; lactam N-9)
15 | 1 to 100 | 1 to 100 | C[C@@H]1NC(=O)[C@@H]2CCCN2C(=O)[C@H](CCCc2ccccc2)NC(=O)[C@H](Cc2c[nH]c3ccc(F)cc23)NC(=O)CNC(=O)[C@H](CCCCN)NC(=O)CCSCc2cccc(c2)CSC[C@@H](C(N)=O)NC(=O)[C@@H]2CCCN2C(=O)[C@H](Cc2ccc(O)cc2)NC1=O [Compound 013] ([Mpa]KG[Trp(5-F)][hhPhe]PAYPC-NH2; linker 1-10 via mXylylene)
16 | 1 to 100 | 1000 to 12100 | C[C@@H]1NC(=O)[C@@H]2CCCN2C(=O)[C@H](Cc2c[nH]c3ccc(F)cc23)NC(=O)[C@H](Cc2c[nH]c3ccc(F)cc23)NC(=O)[C@@H](C)NC(=O)[C@@H]2CCCN2C(=O)CCSCc2cccc(c2)CSCCNC(=O)[C@@H]2CCCN2C(=O)[C@H](Cc2ccc(O)cc2)NC1=O [Compound 050] (cyclo(AYP[X1]P[dA][Trp(5-F)][Trp(5-F)]P))
17 | 100 to 1000 | 1 to 100 | COc1ccc(C[C@@H]2NC(=O)[C@H](C)NC(=O)CN3C/C=C\COc4cccc(c4)C[C@H](NC(=O)CNC(=O)CCCCCNC(=O)c4ccc(cc4)C[C@@H](C(N)=O)NC(=O)[C@]4(C)CCCN4C2=O)C(=O)N[C@@H](Cc2c[nH]c4ccc(F)cc24)C3=O)cc1 [Compound 121] ([Ahx]G[X6][Trp(5-F)][X7]AY(Me)[αMeP][Phe(4-COOH)]-NH2; staple (Z) 3-5; lactam N-9)
18 | 1 to 100 | 1 to 100 | C[C@@H]1NC(=O)CCSCc2cccc(c2)CSCCNC(=O)[C@@H]2CCCN2C(=O)[C@H](Cc2ccccc2)N(C)C(=O)[C@H](C)NC(=O)[C@@H]2CCCN2C(=O)[C@H](Cc2c[nH]c3ccc(F)cc23)NC(=O)[C@H](Cc2c[nH]c3ccc(F)cc23)NC(=O)[C@@H](C)NC1=O [Compound 063] (cyclo(A[NMeF]P[X1]A[dA][Trp(5-F)][Trp(5-F)]P))
19 | 1 to 100 | 1 to 100 | COc1ccc(C[C@@H]2NC(=O)[C@H](C)NC(=O)[C@@H]3CCCN3C(=O)[C@H](NC(=O)[C@H](Cc3c[nH]c4ccc(F)cc34)NC(=O)[C@@H](C)NC(C)=O)Cc3cn(c4ccc(F)cc34)Cc3cn(nn3)-c3cccc(c3)CSCCNC(=O)[C@]3(C)CCCN3C2=O)cc1 [Compound 102]
20 | 100 to 1000 | 100 to 1000 | C[C@@H]1NC(=O)[C@@H]2CCCN2C(=O)[C@H](Cc2ccc(F)cc2)NC(=O)[C@H](Cc2c[nH]c3ccc(F)cc23)NC(=O)CNC(=O)[C@H](CCCCN)NC(=O)CCSCc2cccc(c2)CSC[C@@H](C(N)=O)NC(=O)[C@@H]2CCCN2C(=O)[C@H](Cc2ccc(O)cc2)NC1=O [Compound 006] ([Mpa]KG[Trp(5-F)][Phe(4-F)]PAYPC-NH2; linker 1-10 via mXylylene)
